US11325899B2, “Benzofurane and benzothiophene derivatives as PGE2 receptor modulators” (IDORSIA PHARMACEUTICALS LTD, priority 2017, dated 2022)

Tests used:
Assay type in all cases: cell-based
EP4 receptor = biological target: T1, EP4 receptor (Homo sapiens, UniProt P35408); assay: hEP4 cAMP assay (BT549 breast cancer cells, HTRF cAMP, PGE2 stimulation); details: antagonistic activity, PGE2 6 nM (EC80)
T1 construct: BT549 breast cancer cells, express high endogenous EP4 levels and very low EP2 levels; host or cells: BT549 breast cancer cells
T1 sequence (P35408 whole entry): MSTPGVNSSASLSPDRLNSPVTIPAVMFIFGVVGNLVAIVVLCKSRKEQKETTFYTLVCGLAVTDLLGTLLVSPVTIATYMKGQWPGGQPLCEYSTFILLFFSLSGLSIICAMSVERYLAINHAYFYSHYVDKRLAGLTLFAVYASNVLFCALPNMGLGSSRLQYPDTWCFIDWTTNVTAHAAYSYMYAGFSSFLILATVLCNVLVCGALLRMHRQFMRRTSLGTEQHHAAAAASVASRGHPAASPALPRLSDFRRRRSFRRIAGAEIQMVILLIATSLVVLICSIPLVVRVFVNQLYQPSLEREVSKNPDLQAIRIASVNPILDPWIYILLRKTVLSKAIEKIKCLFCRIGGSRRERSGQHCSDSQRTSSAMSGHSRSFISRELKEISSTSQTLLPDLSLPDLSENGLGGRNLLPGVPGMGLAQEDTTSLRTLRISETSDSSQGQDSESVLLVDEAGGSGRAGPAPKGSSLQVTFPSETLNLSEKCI
Method: (§1) The antagonistic activities of the compounds of formula (I) on the EP2 and EP4 receptors are also determined in accordance with the following experimental method.
(§2) Human tumor cell lines expressing endogenously either EP4 or EP2 are used and cAMP accumulation in cells upon PGE2 stimulation is monitored. SF295 glioblastoma cells express high endogenous EP2 and no EP4, whereas BT549 breast cancer cells, express high endogenous EP4 levels and very low EP2 levels.
(§3) As a detection method for cAMP the HTRF (homogeneous time resolved fluorescence) Cisbio kit (HTRF cAMP dynamic 2 kit 20′000 tests Cisbio Cat. #62AM4PEC) was used, which is based on a competitive immunoassay using a Cryptate-labeled anti-cAMP antibody and d2-labeled cAMP. Native cAMP produced by cells or unlabeled cAMP (for the standard curve) compete with exogenously added d2-labeled cAMP (acceptor) for binding to monoclonal anti-cAMP-Eu3+ Cryptate (donor). A FRET signal (Fluorescence Resonance Energy Transfer) is obtained only if the labeled anti-cAMP antibody binds the d2 labelled cAMP, thus the specific signal (i.e. energy transfer) is inversely proportional to the concentration of cAMP in the standard or sample.
(§4) The BT549 cells (NCI/No. 0507282) are detached from culture dishes with a cell dissociation buffer (Invitrogen, 13151-014), and collected in growing medium (GM: RPMI1640 (Invitrogen 21875)/10% FCS, 1% Penicilin/streptomycin). Cells are counted washed and resuspended in assay buffer (AB; HBSS, 20 mM HEPES, 0.2% BSA; 2 mM IBMX). 4′000 cells in 5 μl of AB are seeded per well of a small volume 384 well plate (black with flat bottom, Greiner 784076).
Stock solutions of test compounds are made at a concentration of 10 mM in DMSO, and serially diluted in DMSO to concentrations required for inhibition dose response curves (tested concentration range 30 μM-0.4 nM; 30 μM-0.015 nM or 1 uM-0.01 nM).
PGE2 (Cayman 14010, stock solution: 6 μM in DMSO) is used as agonist at 6 nM final concentration, corresponding to EC80.
(§5) Two point five microliters of diluted compounds are transferred into the assay plate. Plate is pre-incubated 45 minutes at room temperature. Subsequently, 2.5 microliters of PGE2 (final conc. 6 nM) are transferred into the assay plate. Plate is incubated 30 minutes at room temperature. Five μl of each donor (anti-cAMP cryptate) and acceptor (cAMP-d2) are added and the plate is incubated another hour at room temperature in the dark and then read using a BMG LABTECH PHERAstar reader (Excitation:337 nm, Emission:620 and 665 nm).
(§6) The obtained Delta F(fluorescence) values (665 nm/620 nM) are converted into % cAMP values using the measurements of the cAMP calibrator provided in the kit. For each compound concentration the percentage of cAMP compared to DMSO control value as average±STDEV (each concentration is measured in duplicate) is calculated.
(§7) IC50 values and curves are generated with XLfit software (IDBS) using Dose-Response One Site model 203. When compounds were measured multiple times, mean values are given.

EP2 receptor = biological target: T2, EP2 receptor (Homo sapiens, UniProt P43116); assay: hEP2 cAMP assay (SF295 glioblastoma cells, HTRF cAMP, PGE2 stimulation); details: antagonistic activity
T2 construct: SF295 glioblastoma cells express high endogenous EP2 and no EP4; host or cells: SF295 glioblastoma cells
T2 sequence (P43116 whole entry): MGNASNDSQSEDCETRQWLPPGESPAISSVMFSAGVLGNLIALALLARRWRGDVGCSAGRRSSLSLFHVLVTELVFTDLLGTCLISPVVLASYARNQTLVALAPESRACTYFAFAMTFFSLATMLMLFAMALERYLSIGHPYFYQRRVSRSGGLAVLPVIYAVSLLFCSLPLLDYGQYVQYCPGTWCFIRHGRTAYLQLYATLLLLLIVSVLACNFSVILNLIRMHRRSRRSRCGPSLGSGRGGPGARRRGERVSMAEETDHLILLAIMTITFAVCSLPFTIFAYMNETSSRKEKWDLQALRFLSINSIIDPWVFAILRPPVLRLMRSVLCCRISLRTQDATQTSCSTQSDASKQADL
Method: as §1, §2, §3
as §4, with “SF295” for “BT549”, “0503170)” for “0507282)”, “RPM1640” for “RPMI1640”
Stock solutions of test compounds are made at a concentration of 10 mM in DMSO, and serially diluted in DMSO to concentrations required for inhibition dose response curves (tested concentration range 30 μM-0.4 nM; 30 μM-0.015 nM or 1 μM-0.01 nM).
PGE2 (Cayman 14010, stock solution: 75 μM in DMSO) is used as agonist at 75 nM final concentration, corresponding to EC80.
as §5, with “conc. 75” for “conc. 6”, “reader (Excitation: 337” for “reader (Excitation:337”, “nm, Emission: 620” for “nm, Emission:620”
as §6, with “F (fluorescence)” for “F(fluorescence)”
as §7

PTGER2 (EP2) = biological target: T3, PTGER2 (EP2) (Homo sapiens, UniProt P43116); assay: hEP2 b-arrestin assay (PathHunter HEK 293 PTGER2 b-arrestin cells); details: antagonistic activity, beta-arrestin assay; read-out: hEP2 b-arr IC50
T3 construct: host or cells: HEK 293 (PathHunter PTGER2 b-arrestin cell line)
T3 sequence (P43116 whole entry): as above
Method: (§8) The antagonistic activities of the compounds of formula (I) on the EP2 and EP4 receptors are determined in accordance with the following experimental method.
(§9) The assay is using the PathHunter™ HEK 293 PTGER2 and PTGER4 b-arrestin cell lines from DiscoverX. The system is based on the Enzyme Fragment Complementation Technology. Two complementing fragments of the b-galactosidase enzyme are expressed within stably transfected cells. The larger portion of b-gal, termed EA for Enzyme Acceptor, is fused to the C-terminus of b-arrestin 2. The smaller fragment, termed ProLink™ tag, is fused to PTGER2 (EP2) or PTRGER4 (EP4) at the C-terminus. Upon activation, b-arrestin is recruited which forces the interaction of ProLink and EA, allowing complementation of the two fragments of b-gal and the formation of a functional enzyme which is capable of hydrolysing the substrate and generating a chemiluminescent signal.
(§10) The HEK 293 PTGER2 b-arrestin cells (DiscoverX 93-021-4C1) are detached from culture dishes with a cell dissociation buffer (Invitrogen, 13151-014), and collected in growing medium (GM: DMEM+Glutamax-I (Invitrogen 32430)/10% FCS, 1% Penicilin/streptomycin). 5000 cells per well of a 384 well plate (white with white bottom Greiner 781080) are seeded in 20 ul per well of GM. Plate is incubated at 37° C., 5% C02 for 24 hours.
(§11) Stock solutions of test compounds are made at a concentration of 10 mM in DMSO, and serially diluted in DMSO to concentrations required for inhibition dose response curves (tested concentration range 10 μM-2 nM or 1 μM-0.2 nM).
PGE2 (Cayman 14010, stock solution: 10 mM in DMSO) is used as agonist at 5 μM final concentration, corresponding to EC80.
Five microliters of diluted compounds are transferred into the assay plate. Plate is pre-incubated 15 minutes at 37° C. Then five microliters of PGE2 (final conc. 5 μM) are transferred into the assay plate. Plate is incubated 120 minutes at 37° C.
(§12) PathHunter Glo Detection Kit components are thawed and mix according to manufacturer's instructions: 1 part Galacton Star Substrate with 5 parts Emerald II™ Solution, and 19 parts of PathHunter Cell Assay Buffer, respectively. Twelve μl of reagent are transferred to the assay plate and incubate for 1 hour at room temperature in the dark. Luminescence counts are read on a BMG Fluostar Optima reader according to manufacturer's instructions.
(§13) For each compound concentration calculate of the percentage of activity compared to DMSO control value as average±STDEV. (each concentration is measured in duplicate)
as §7

PTGER4 (EP4) = biological target: T4, PTGER4 (EP4) (Homo sapiens, UniProt P35408); assay: hEP4 b-arrestin assay (PathHunter HEK 293 PTGER4 b-arrestin cells); details: antagonistic activity, beta-arrestin assay; read-out: hEP4 b-arr IC50
T4 construct: host or cells: HEK 293 (PathHunter PTGER4 b-arrestin cell line)
T4 sequence (P35408 whole entry): as the sequence (P35408 whole entry) above
Method: as §8, §9
as §10, with “PTGER4” for “PTGER2”, “93-030-4C1)” for “93-021-4C1)”
as §11
PGE2 (Cayman 14010, stock solution: 100 uM in DMSO) is used as agonist at 20 nM final concentration, corresponding to EC80.
Five microliters of diluted compounds are transferred into the assay plate. Plate is pre-incubated 15 minutes at 37° C. Then five microliters of PGE2 (final conc. 20 nM) are transferred into the assay plate. Plate is incubated 120 minutes at 37° C.
as §12, §13, §7

IC50 (EP4 receptor) | IC50 (EP2 receptor) | IC50 (PTGER2 (EP2)) | IC50 (PTGER4 (EP4)) | SMILES
42 nM | 13 nM | – | – | Cc1sc2c(C)cc(F)cc2c1CCNc1cc(-c2cc(OCCO)c(C(=O)O)s2)ncn1 [Example 41, 5-{6-[2-(5-Fluoro-2,7-dimethyl-benzo[b]thiophen-3-yl)-ethylamino]-pyrimidin-4-yl}-3-(2-hydroxy-ethoxy)-thiophene-2-carboxylic acid]
2 nM | 1 nM | – | – | CCOc1cc(-c2cc(NCCc3c(C#N)sc4c(C)cc(F)cc34)ncn2)sc1C(=O)O [Example 26, 5-{6-[2-(2-Cyano-5-fluoro-7-methyl-benzo[b]thiophen-3-yl)-ethylamino]-pyrimidin-4-yl}-3-ethoxy-thiophene-2-carboxylic acid]
22 nM | – | 59 nM | 142 nM | COc1cc(Cl)cc2c(CCNc3cc(-c4cc(C)c(C(=O)O)s4)ncn3)c(C)oc12 [Example 1, 5-{6-[2-(5-Chloro-7-methoxy-2-methyl-benzofuran-3-yl)-ethylamino]-pyrimidin-4-yl}-3-methyl-thiophene-2-carboxylic acid]
87 nM | 7 nM | – | – | Cc1sc2c(C)cccc2c1CCNc1cc(-c2ccc3oc(C(=O)O)cc3c2)ncn1 [Example 78, 5-{6-[2-(2,7-Dimethyl-benzo[b]thiophen-3-yl)-ethylamino]-pyrimidin-4-yl}-benzofuran-2-carboxylic acid]
– | 1 nM | 10 nM | 3490 nM | CSc1cc(-c2cc(NCCc3c(C)oc4ccccc34)ncn2)cc(Cl)c1C(=O)O [Example 51, 2-Chloro-4-{6-[2-(2-methyl-benzofuran-3-yl)-ethylamino]-pyrimidin-4-yl}-6-methylsulfanyl-benzoic acid]
– | 71 nM | 99 nM | 3090 nM | Cc1sc2c(Cl)ccc(Cl)c2c1CCNc1cc(-c2ccc(C(=O)O)c(O)c2)ncn1 [Example 11, 4-{6-[2-(4,7-Dichloro-2-methyl-benzo[b]thiophen-3-yl)-ethylamino]-pyrimidin-4-yl}-2-hydroxy-benzoic acid]
82 nM | 37 nM | – | – | CCOc1cc(-c2cc(NCCc3c(C)sc4c(C)cc(F)cc34)ncn2)ccc1NCC(=O)O [Example 128, (2-Ethoxy-4-{6-[2-(5-fluoro-2,7-dimethyl-benzo[b]thiophen-3-yl)-ethylamino]-pyrimidin-4-yl}-phenylamino)-acetic acid]
– | 1 nM | 2 nM | 3620 nM | CSc1cc(-c2cc(NCCc3c(C)oc4ccccc34)ncn2)cc(F)c1C(=O)O [Example 49, 2-Fluoro-4-{6-[2-(2-methyl-benzofuran-3-yl)-ethylamino]-pyrimidin-4-yl}-6-methylsulfanyl-benzoic acid]
644 nM | 273 nM | – | – | COc1cc(-c2cc(NCCc3c(C)sc4c(C)ccc(F)c34)ncn2)cc(C)c1C(=O)O [Example 74, 4-{6-[2-(4-Fluoro-2,7-dimethyl-benzo[b]thiophen-3-yl)-ethylamino]-pyrimidin-4-yl}-2-methoxy-6-methyl-benzoic acid]
– | 4 nM | 5 nM | 3500 nM | CCOc1cc(-c2cc(NCCc3c(C)oc4ccccc34)ncn2)ccc1C(=O)O [Example 73, 2-Ethoxy-4-{6-[2-(2-methyl-benzofuran-3-yl)-ethylamino]-pyrimidin-4-yl}-benzoic acid]
– | 2 nM | 5 nM | 3380 nM | CSc1cc(-c2cc(NCCc3c(C)sc4ccccc34)ncn2)cc(F)c1C(=O)O [Example 48, 2-Fluoro-4-{6-[2-(2-methyl-benzo[b]thiophen-3-yl)-ethylamino]-pyrimidin-4-yl}-6-methylsulfanyl-benzoic acid]
426 nM | 359 nM | – | – | CCOc1cc(-c2cc(NCCc3csc4ccccc34)ncn2)ccc1OCC(=O)O [Example 125, {4-[6-(2-Benzo[b]thiophen-3-yl-ethylamino)-pyrimidin-4-yl]-2-ethoxy-phenoxy}-acetic acid]
